According to patent US20170226507A1, “COORDINATE CONTROL OF PATHOGENIC SIGNALING BY THE MIR-130/301 FAMILY IN PULMONARY HYPERTENSION AND FIBROPROLIFERATIVE DISEASES” (The Brigham and Women's Hospital, Inc., priority 2014, published 2017):

Legend:
Format in all cases: cell-based, human
PAECs = test: Proliferation of PAECs (cell counting, BrdU incorporation, PCNA)
Excerpt: (§1) Pre-miRNA oligonucleotides (pre-miR-130a, pre-miR-204, pre-miR-424, and pre-miR-503 and negative control pre-miR-NC1 and premiR-NC2, Life Technologies), anti-miRNAs oligonucleotides (anti-miR-130a and anti-miR-NC, ThermoScientific), tiny LNA oligonucleotides (tiny-130: 5′-[…]-3′ (SEQ ID NO: 3), and tiny-NC 5′-[…]-3′ (SEQ ID NO: 51), Exiqon), siRNAs (PPARγ and scrambled control, Santa Cruz Biotechnology; HIF-1α, HIF-2α, and scrambled control, Life Technologies) were commercially purchased. PAECs and PASMCs were plated and transfected 24 h later at 70-80% confluence using pre-miRNA (5 nM), anti-miRNA (20 nM), tiny-LNA (20 nM) or siRNA (25 nM) with Lipofectamine 2000 reagent (Life Technologies), according to the manufacturers' instructions.
(§2) Exponentially growing cells were transfected, collected at the indicated times and counted.
(§3) Cells were lysed in RIPA buffer (Santa Cruz Biotechnology) and the protein concentration determined using a Bradford assay (Biorad). Protein lysate ([…]) were resolved by SDS-PAGE and transferred onto a PVDF membrane (Biorad). Membranes were blocked in 5% non-fat milk in TN buffer (50 mM Tris-HCl pH 7.4, 150 mM NaCl) and incubated in the presence of the primary and then secondary antibodies. After washing in TN buffer containing 0.1% Tween, immunoreactive bands were visualized with the ECL system (Amersham Biosciences). […] Primary antibodies for STAT3 (#9139) and P-STAT3 (Tyr-705; #9145) were purchased from Cell Signaling. Primary antibodies against actin (ab 3280), α-smooth-muscle-actin (ab 32575), CD31 (ab28364), and PCNA (ab 29) were obtained from Abcam. Appropriate secondary antibodies (anti-rabbit and anti-mouse) coupled to HRP were used (Santa Cruz Biotechnology).

PASMCs = test: Proliferation of PASMCs (cell counting, BrdU incorporation, PCNA)
Excerpt: as §1, §2, §3

endothelin-1 = test: Quantification of endothelin-1 by ELISA in conditioned media of PAECs; conditions: mimic: normoxia and hypoxia, inhibitors: hypoxia 0.2% O2
Description: Twenty-four hours after transfection PAECs were washed in PBS, and medium was replaced by media without serum. Twenty-four hour later conditioned media from PAEC transfected as indicated were collected and endothelin-1 was measured by ELISA kit (Enzo biosciences) according to the manufacturer's protocol. Human plasma sample (see below) and mouse plasma were also tested for endothelin-1 level by ELISA.

PAAFs = PAAFs in soft or stiff matrix: fibrotic gene expression, immunoblot, collagen secretion; conditions: PAAFs
Description: Cell Culture and Reagents: Primary human pulmonary arterial adventitial fibroblast cells (PAAFs) were purchased and propagated in FGM cell culture media (Lonza). Experiments were performed at passages 3 to 6. Primary human pulmonary fibroblast cells (PFs) were purchased and propagated in FGM cell culture media (Lonza). Primary human pulmonary arterial endothelial cells (PAECs) were purchased and propagated in EGM-2 cell culture media (Lonza). Experiments were performed at passages 3 to 6. Primary human pulmonary arterial smooth muscle cells (PASMCs) were purchased and propagated in SmGM-2 cell culture media (Lonza). Experiments were performed at passages 3 to 9. HEK293T cells (American Type Culture Collection) were used and cultivated in DMEM containing 10% fetal bovine serum (FBS). Cells were propagated in coated collagen plastic (50 ug/mL) at 37° C. in a humidified 5% CO2 atmosphere. Collagen-coated hydrogel were purchased.
3D cell culture: Protocol was adapted from previously published protocol (Aragona M et al, 2013 Cell). Cells were embedded in a mixture of Growth Factor Reduced Matrigel (BD Biosciences) and Collagen-I (BD Biosciencres). Collagen-I solution was neutralized on ice with 0.1M NaOH in PBS and adjusted with 0.1N HCl to bring the pH of the solution to 7.5. The Collagen-I solution was then mixed on ice with Matrigel to obtain a final concentration of 1.2 mg/ml (soft matrices) or 3 mg/ml (stiff matrices). Cells were trypsinized, counted, resuspended in growth medium; then, 1 volume of cells was mixed with 1 volume of the ECM mix. 6-well plated were precoated with 1 ml of cellfree 50% medium/50% ECM, and left in the incubator until gelled; then, cells were seeded in drop on top of the pregelled ECM. After gelling, wells were supplemented with normal growth medium, which was changed every 2 days during the experiments.
Oligonucleotides and Transfection: Pre-miRNA oligonucleotides (pre-miR-130a, negative control pre-miR-NC1 and premiR-NC2) and custom designed tiny LNA oligonucleotides (tiny-130: 5′-[…]-3′ (SEQ ID NO: 52), and tiny-NC 5′-[…]-3′ (SEQ ID NO: 54)) were purchased from Life Technologies/Ambion and Exiqon, respectively. siRNAs for PPARγ and OCT4/POU5F1 were purchased from Santa Cruz Biotechnology. siRNA for TIMP2 was purchased from Life Technologies. On Target Plus siRNAs for YAP1, TAZ (WWTR1), LRP8 and scrambled control were purchased from ThermoScientific/Dhermacon. PAAF, PF, PAEC and PASMC were plated in collagen-coated dish (50 ug/mL) and transfected 24 h later at 70-80% confluence using pre-miRNA (5 nM), tiny-LNA (20 nM) or siRNA (25 nM) and Lipofectamine 2000 reagent (Life Technologies), according to the manufacturers' instructions. 8 hours after transfection cells were trypsinized and re-plated in the different hydrogel/3D-matrix.
Primary human pulmonary arterial adventitial fibroblast cells (PAAFs) were purchased (ScienCell Research Laboratories) and grown in FGM cell culture media (Lonza). Experiments were performed at passages 3 to 6. Primary human pulmonary arterial endothelial cells (PAECs) were grown in EGM-2 cell culture media (Lonza), and experiments were performed at passages 3 to 6. Primary human pulmonary arterial smooth muscle cells (PASMCs) were cultured in SmGM-2 cell culture media (Lonza), and experiments were performed at passages 3 to 9. HEK293T cells (American Type Culture Collection) were cultivated in DMEM containing 10% fetal bovine serum (FBS). […]

[1] = exponentially growing, BrdU pulse 1 h
[2] = immunoblot 48 hours after transfection

With “tiny-LNA-130: fully LNA-modified tiny LNA oligonucleotide 5′-ATTGCACT-3′ (SEQ ID NO: 3) complementary to the seed region of the miR-130/301 family (all LNA, backbone and methylation of C not given here)” the number of cells (PAECs; counted each day during 3 days) was “greater decrease in the number of cells compared with anti-miR-130a”, the “BrdU incorporation (proliferation)” value (PAECs; [1]) was “greater decrease in proliferation compared with anti-miR-130a” and the PCNA expression (PAECs; [2]) was “more substantial decrease”. For the same substance, the number of cells (PASMCs; counted each day during 3 days) was “greater decrease in the number of cells compared with anti-miR-130a”, the “BrdU incorporation (proliferation)” value (PASMCs; [1]) was “greater decrease in proliferation compared with anti-miR-130a” and the PCNA expression (PASMCs; [2]) was “more substantial decrease”. The “mature endothelin-1 in conditioned media” value (endothelin-1) was “decreased endothelin-1 expression to a greater extent than inhibition of miR-130a alone”, the “collagen content of conditioned media (collagen secretion)” value (PAAFs) was “decreased” and the ApoE (PAAFs; immunoblot, tiny-LNA-130 in stiff conditions) was “increased”. For the same substance, the “collagen transcripts, LOX and CTGF” value (PAAFs; mimic in soft matrix, tiny-LNA-130 in high ECM stiffness) was “decreased”.
